According to patent US20100160356A1, “NOVEL CYCLOBUTYL COMPOUNDS AS KINASE INHIBITORS” (priority 2006, published 2010):
Structures can show the parent of a compound that is named as a salt.

How the values were obtained:
[1] = molecular target: T1, TGFβR1 (Homo sapiens, UniProt P36897); assay: Inhibition of TGFβR1 (flashplate assay); assay type: biochemical; settings: flashplate method
T1 sequence (P36897 34-503): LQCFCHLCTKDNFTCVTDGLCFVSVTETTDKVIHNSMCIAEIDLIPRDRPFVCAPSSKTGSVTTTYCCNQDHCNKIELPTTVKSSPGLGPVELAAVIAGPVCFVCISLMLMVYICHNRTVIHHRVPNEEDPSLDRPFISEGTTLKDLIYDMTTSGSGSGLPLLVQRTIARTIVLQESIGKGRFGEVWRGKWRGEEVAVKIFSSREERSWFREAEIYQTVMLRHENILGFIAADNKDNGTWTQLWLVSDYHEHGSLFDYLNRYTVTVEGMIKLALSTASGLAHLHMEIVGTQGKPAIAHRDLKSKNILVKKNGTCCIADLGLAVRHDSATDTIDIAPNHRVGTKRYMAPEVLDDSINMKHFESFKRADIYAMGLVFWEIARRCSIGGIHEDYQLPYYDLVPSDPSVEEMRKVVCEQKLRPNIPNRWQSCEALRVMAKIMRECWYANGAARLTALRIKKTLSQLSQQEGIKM
Method: The test is carried out as described in Example B1b for IGF1R. A biotinylated is added to the TGFβR1 kinase.
The kinase assay is carried out as a 384-well flashplate assay.
The components of the kinase reaction are pipetted into the assay plate. The TGFβR1 kinase is incubated for 45 min with radioactively labelled ^33P-ATP in the presence and absence of test substances together with biotinylated substrate in a total volume of 35 μl. The reaction is terminated using 25 μl of 200 mM EDTA solution, removed by suction after 30 min at room temperature, and the wells are washed with three times with 100 μl of 0.9% NaCl solution each time. The radioactivity is measured using a Topcount scintillation counter (PerkinElmer, USA). IC50 values are calculated using the RS1 computer program.

[2] = molecular target: PDGFRβ (Homo sapiens, UniProt P09619); assay: Inhibition of PDGFRβ (flashplate assay); assay type: biochemical; settings: flashplate method
Method: (§1) The test plates used are 96-well flashplate microtitre plates from Perkin Elmer (USA). The components of the kinase reaction are pipetted into the assay plate. The PDGFRβ kinase is incubated for 3 hr. with radioactively labelled ^33P-ATP in the presence and absence of test substances in a total volume of 100 μl at room temperature (here autophosphorylation of the kinase). The reaction is terminated using 150 μl of a 60 mM EDTA solution. After incubation for a further 30 min at room temperature, the supernatants are removed by suction, and the wells are washed three times with 200 μl of 0.9% NaCl solution each time. The radioactivity is measured using a Topcount scintillation counter (PerkinElmer, USA). IC50 values are calculated using the RS1 computer program.

[3] = molecular target: T2, FAK (focal adhesion kinase) (Homo sapiens, UniProt Q05397); assay: Inhibition of FAK (ELISA assay), FAK phosphorylation in cells; assay type: cell-based; settings: human cells with FAK amplification
T2 construct: endogenous in cells; host or cells: Calu-6 or HT-29
Method: Activated FAK promotes the invasive growth of tumour cells and inhibits anoikis.
The amount of phosphorylated FAK is determined by a specific capture ELISA or an analogous LUMINEX assay. FAK from cell lysates is bound to a 96-well ELISA plate or LUMINEX beads by means of a specific antibody (“capturing”), and the tyrosine phosphorylation is detected using a biotin-labelled anti-phosphotyrosine antibody and a streptavidin-peroxidase conjugate by a chemiluminescence method or by means of a fluorescence-labelled anti-phosphotyrosine antibody.
For determination of the activity of kinase inhibitors, cells are pretreated with increasing concentrations of these compounds for 45 min, and the FAK phosphorylation is then determined. As internal control, a concentration series of a reference inhibitor is measured.

[4] = molecular target: TIE2 (Homo sapiens, UniProt Q02763); assay: Inhibition of TIE2 (flashplate assay); assay type: biochemical; settings: flashplate method
Method: B4: inhibition of T1E2 (Flashplate Assay)
as §1, with “384-well” for “96-well”, “TIE2” for “PDGFRβ”, “together with biotinylated poly(Glu, Tyr)4:1.” for “(here autophosphorylation of the kinase).”, “25” for “150”, “200” for “60”, “100” for “200”

[5] = molecular target: VEGF-2 (Homo sapiens, UniProt P35968); assay: Inhibition of VEGF-2 (flashplate assay); assay type: biochemical; settings: flashplate method
Method: as §1, with “384-well” for “96-well”, “VEGF-2” for “PDGFRβ”, “together with biotinylated poly(Glu, Tyr)4:1.” for “(here autophosphorylation of the kinase).”, “25” for “150”, “200” for “60”, “100” for “200”

[6] = molecular target: T3, IGF1 receptor (IGF1R) (Homo sapiens, UniProt P08069); assay: Inhibition of IGF1R (ELISA assay), IGF1-stimulated autophosphorylation in cells; assay type: cell-based; settings: human tumour cells stimulated with IGF1, read-out: IC50 IGF (ELISA)
T3 construct: endogenous in cells; host or cells: MCF-7 or Calu-6
Method: The stimulation induces an autophosphorylation of tyrosine residues in the cytoplasmatic IGF1R domain, which triggers signal transduction cascades, which result in inhibition of apoptosis and proliferation of the cells.
The amount of phosphorylated IGF1R is determined by a receptor-specific capture ELISA or an analogous LUMINEX assay. The IGF1R from cell lysates is bound to a 96-well ELISA plate or LUMINEX beads by means of a specific antibody (“capturing”), and the tyrosine phosphorylation is detected using a biotin-labelled anti-phosphotyrosine antibody and a streptavidin-peroxidase conjugate by a chemiluminescence method or by means of a fluorescence-labelled anti-phosphotyrosine antibody.
For determination of the activity of kinase inhibitors, cells are pretreated with increasing concentrations of these compounds for 45 min and subsequently stimulated using IGF1 for 5 min. As internal control, the biological activity of the ligand IGF1 is checked, and a concentration series of an IGF1R reference inhibitor is measured.

[7] = molecular target: IGF1R (Homo sapiens, UniProt P08069); assay: Inhibition of IGF1R (flashplate assay); assay type: biochemical; settings: flashplate method
Method: as §1, with “The IGF1R” for “The PDGFRβ”, “for 1” for “for 3”, “temperature together with biotinylated poly(Glu, Tyr)4:1.” for “temperature (here autophosphorylation of the kinase).”, “using 25” for “using 150”, “a 200” for “a 60”, “with 100” for “with 200”

T3 sequence (P08069 31-1367): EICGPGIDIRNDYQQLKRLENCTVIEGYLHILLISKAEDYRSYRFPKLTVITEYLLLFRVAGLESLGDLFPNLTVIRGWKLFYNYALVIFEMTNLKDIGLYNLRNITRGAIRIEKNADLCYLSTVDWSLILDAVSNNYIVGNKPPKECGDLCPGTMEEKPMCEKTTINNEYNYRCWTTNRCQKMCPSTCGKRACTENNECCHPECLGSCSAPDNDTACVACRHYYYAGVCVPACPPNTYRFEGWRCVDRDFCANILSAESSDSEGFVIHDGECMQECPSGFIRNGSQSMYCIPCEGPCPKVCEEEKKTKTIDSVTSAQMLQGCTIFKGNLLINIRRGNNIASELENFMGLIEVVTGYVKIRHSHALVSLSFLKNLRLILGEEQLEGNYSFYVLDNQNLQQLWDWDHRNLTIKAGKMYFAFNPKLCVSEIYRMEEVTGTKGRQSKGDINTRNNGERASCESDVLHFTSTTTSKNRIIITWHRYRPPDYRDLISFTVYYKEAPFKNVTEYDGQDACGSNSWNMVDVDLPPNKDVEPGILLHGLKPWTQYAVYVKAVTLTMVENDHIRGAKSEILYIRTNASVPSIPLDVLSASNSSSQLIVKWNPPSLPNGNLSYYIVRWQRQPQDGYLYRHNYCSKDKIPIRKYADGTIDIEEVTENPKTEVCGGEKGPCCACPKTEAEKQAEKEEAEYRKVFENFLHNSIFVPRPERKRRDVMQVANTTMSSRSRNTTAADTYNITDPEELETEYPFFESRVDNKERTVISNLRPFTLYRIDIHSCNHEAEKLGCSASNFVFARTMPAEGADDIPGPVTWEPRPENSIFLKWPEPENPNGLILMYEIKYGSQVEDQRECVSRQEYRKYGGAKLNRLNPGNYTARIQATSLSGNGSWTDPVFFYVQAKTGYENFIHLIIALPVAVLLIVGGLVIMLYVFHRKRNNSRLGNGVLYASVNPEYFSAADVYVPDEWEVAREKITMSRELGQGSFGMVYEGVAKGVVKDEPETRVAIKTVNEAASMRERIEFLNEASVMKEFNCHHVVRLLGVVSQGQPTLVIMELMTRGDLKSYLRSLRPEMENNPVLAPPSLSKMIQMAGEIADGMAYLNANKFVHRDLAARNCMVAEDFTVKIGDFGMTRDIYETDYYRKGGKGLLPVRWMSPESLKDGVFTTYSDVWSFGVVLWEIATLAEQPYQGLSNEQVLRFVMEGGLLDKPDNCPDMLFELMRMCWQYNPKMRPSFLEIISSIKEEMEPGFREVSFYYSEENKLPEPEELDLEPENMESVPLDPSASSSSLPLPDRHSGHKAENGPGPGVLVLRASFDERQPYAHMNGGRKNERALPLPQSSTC
Sequence of VEGF-2 (P35968 20-1356): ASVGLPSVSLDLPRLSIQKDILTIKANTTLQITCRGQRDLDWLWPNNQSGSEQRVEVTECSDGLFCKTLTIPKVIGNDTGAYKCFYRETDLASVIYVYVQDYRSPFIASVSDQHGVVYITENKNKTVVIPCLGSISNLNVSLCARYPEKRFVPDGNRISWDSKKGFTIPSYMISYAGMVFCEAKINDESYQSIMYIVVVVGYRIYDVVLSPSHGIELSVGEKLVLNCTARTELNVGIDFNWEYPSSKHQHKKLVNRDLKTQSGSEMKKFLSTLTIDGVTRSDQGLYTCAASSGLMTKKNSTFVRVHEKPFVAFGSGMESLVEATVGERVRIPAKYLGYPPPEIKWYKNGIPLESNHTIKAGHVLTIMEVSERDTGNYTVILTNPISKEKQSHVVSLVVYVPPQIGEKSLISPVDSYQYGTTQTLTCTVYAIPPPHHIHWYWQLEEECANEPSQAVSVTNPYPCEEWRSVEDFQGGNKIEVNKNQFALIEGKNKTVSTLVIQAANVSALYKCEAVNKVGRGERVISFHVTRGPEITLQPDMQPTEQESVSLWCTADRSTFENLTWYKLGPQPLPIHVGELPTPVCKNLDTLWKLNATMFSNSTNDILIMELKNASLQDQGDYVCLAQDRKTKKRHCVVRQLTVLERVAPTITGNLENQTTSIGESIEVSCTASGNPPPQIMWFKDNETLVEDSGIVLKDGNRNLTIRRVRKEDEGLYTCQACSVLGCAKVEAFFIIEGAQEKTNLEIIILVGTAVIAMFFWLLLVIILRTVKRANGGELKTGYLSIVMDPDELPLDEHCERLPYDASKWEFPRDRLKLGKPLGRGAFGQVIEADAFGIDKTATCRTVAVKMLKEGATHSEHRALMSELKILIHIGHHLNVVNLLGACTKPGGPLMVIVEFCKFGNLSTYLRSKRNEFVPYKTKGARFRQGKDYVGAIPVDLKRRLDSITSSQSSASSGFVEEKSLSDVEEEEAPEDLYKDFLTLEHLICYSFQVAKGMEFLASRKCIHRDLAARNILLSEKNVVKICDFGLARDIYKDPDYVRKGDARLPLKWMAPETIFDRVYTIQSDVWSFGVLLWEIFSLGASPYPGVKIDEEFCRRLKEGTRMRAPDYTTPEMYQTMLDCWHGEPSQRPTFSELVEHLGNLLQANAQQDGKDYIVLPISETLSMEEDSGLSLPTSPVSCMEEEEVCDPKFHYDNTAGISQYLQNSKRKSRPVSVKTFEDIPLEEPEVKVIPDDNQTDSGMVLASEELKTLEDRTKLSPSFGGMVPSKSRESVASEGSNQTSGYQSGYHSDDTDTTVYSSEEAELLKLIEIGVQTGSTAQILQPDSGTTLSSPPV
Sequence of TIE2 (Q02763 23-1124, species assumed): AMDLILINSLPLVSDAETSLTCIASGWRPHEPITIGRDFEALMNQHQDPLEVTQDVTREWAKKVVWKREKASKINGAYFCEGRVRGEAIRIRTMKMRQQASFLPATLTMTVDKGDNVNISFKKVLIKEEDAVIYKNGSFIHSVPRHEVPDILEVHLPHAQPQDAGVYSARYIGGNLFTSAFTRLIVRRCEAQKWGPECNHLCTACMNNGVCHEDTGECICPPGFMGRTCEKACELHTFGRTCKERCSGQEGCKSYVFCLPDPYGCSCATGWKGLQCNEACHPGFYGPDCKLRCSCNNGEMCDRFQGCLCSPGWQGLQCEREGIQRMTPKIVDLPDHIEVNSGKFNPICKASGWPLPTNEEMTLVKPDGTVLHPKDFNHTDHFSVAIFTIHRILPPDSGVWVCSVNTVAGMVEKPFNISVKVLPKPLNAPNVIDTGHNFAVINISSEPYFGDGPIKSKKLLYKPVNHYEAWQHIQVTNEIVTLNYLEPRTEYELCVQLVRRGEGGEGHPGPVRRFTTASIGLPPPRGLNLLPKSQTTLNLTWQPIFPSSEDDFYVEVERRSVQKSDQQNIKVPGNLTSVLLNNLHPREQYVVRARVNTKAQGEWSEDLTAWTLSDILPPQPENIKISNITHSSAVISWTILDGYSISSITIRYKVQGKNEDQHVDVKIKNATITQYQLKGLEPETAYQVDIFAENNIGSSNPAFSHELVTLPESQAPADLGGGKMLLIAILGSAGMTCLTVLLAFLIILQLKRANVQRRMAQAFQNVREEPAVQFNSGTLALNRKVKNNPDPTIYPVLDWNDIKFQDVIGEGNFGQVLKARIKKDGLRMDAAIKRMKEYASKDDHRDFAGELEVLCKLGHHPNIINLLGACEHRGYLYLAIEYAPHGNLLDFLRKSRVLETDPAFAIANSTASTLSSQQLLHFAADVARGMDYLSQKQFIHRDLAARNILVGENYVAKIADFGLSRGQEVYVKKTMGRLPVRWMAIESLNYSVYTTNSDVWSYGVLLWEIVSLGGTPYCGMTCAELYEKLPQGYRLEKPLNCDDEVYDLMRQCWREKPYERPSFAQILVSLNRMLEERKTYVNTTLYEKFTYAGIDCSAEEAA
Sequence of PDGFRβ (P09619 33-1106, species assumed): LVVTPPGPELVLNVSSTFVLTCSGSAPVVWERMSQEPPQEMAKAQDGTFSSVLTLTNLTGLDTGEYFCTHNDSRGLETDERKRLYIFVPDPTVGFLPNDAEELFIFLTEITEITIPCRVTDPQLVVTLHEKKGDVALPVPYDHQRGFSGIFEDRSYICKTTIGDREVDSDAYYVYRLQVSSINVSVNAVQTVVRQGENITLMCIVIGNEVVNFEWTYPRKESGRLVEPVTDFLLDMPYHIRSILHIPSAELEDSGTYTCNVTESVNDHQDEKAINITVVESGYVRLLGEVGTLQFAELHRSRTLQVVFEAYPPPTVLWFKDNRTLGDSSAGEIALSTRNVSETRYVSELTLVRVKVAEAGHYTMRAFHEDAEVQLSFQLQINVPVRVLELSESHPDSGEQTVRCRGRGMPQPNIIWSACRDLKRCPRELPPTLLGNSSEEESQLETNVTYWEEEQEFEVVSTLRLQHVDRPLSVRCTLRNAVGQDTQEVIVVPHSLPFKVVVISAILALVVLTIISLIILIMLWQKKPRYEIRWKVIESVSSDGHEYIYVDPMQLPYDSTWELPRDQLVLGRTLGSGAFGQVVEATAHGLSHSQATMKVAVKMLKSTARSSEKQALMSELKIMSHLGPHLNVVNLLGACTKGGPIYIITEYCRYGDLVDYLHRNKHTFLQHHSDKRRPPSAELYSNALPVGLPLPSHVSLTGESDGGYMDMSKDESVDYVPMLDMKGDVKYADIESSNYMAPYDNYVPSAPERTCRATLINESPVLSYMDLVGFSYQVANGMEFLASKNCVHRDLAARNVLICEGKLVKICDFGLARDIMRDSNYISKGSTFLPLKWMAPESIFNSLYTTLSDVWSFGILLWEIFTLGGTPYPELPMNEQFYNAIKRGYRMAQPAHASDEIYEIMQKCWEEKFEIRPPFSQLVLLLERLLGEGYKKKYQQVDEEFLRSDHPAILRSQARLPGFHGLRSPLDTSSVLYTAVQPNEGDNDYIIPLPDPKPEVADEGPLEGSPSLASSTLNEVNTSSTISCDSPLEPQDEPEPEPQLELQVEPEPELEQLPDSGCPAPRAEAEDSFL
Sequence of IGF1R (P08069 31-1367, species assumed): as the sequence (P08069 31-1367) above

melting point	IC50 [1]	IC50 [3]	IC50 [6]	SMILES	also measured
206 to 207.5 °C	–	–	–	NCC1CC(n2cc(-c3cccs3)c3c(N)ncnc32)C1 (stereo not shown) (as salt: TFA) [Compound 41]	–
–	8300 nM	4100 nM	–	N#Cc1ccc(-c2cn(C3CC(CN)C3)c3ncnc(N)c23)cc1F (stereo not shown) [Compound 59]	IC50 [2]: 620 nM
–	6100 nM	25000 nM	–	N#Cc1cccc(-c2cn(C3CC(CN)C3)c3ncnc(N)c23)c1 (stereo not shown) [Compound 57]	–
> 195 °C (dec.)	–	–	–	NCC1CC(n2cc(-c3ccncc3)c3c(N)ncnc32)C1 (stereo not shown) (as salt: TFA) [Compound 43]	–
156 to 159 °C	55 nM	630 nM	–	NCC1CC(n2cc(-c3ccc4occc4c3)c3c(N)ncnc32)C1 (stereo not shown) [Compound 63]	IC50 [4]: 1800 nM; IC50 [2]: 310 nM; IC50 [5]: 290 nM
–	150 nM	–	27000 nM	NCC1CC(n2cc(-c3ccncc3)c3c(N)ncnc32)C1 (stereo not shown) [Compound 43]	–
–	–	28000 nM	–	Nc1ncnc2c1c(-c1ccc3c(c1)OCCO3)cn2C1CC(CN2CCCC2)C1 (stereo not shown) [Compound 54]	–
–	45 nM	420 nM	–	NCC1CC(n2cc(-c3cccc4occc34)c3c(N)ncnc32)C1 (stereo not shown) [Compound 65]	IC50 [4]: 2900 nM; IC50 [2]: 940 nM; IC50 [5]: 1320 nM
–	950 nM	–	13000 nM	NCC1CC(n2cc(-c3cccnc3)c3c(N)ncnc32)C1 (stereo not shown) [Compound 44]	–
53 to 55 °C	700 nM	4000 nM	–	NCC1CC(n2cc(-c3cccc([N+](=O)[O-])c3)c3c(N)ncnc32)C1 (stereo not shown) [Compound 20]	–
324 to 325.5 °C	1600 nM	1900 nM	5300 nM	NCC1CC(n2cc(-c3ccc4c(c3)OCCO4)c3c(N)ncnc32)C1 (stereo not shown) [Compound 53]	IC50 [4]: 2000 nM; IC50 [2]: 1100 nM; IC50 [5]: 1400 nM
88 to 90 °C	1000 nM	17500 nM	22000 nM	NCC1CC(n2cc(-c3cccc(OC(F)(F)F)c3)c3c(N)ncnc32)C1 (stereo not shown) [Compound 18]	–
–	–	24000 nM	3500 nM	NCC1CC(n2cc(-c3ccc4ccn(Cc5ccccc5)c4c3)c3c(N)ncnc32)C1 (stereo not shown) [Compound 55]	IC50 [4]: 680 nM; IC50 [5]: 190 nM; IC50 [7]: 1600 nM
–	2700 nM	25000 nM	–	NCC1CC(n2cc(-c3cccc(C(F)(F)F)c3)c3c(N)ncnc32)C1 (stereo not shown) [Compound 17]	–
83 to 84 °C	–	–	–	C[Si](C)(C)COc1cccc(-c2cn(C3CC(CN)C3)c3ncnc(N)c23)c1 (stereo not shown) (as salt: TFA) [Compound 9]	–
207.5 to 209 °C	–	–	–	NCC1CC(n2cc(-c3ccco3)c3c(N)ncnc32)C1 (stereo not shown) (as salt: TFA) [Compound 38]	–
93 to 94.5 °C	1500 nM	28500 nM	22000 nM	CC(C)c1cccc(-c2cn(C3CC(CN)C3)c3ncnc(N)c23)c1 (stereo not shown) [Compound 16]	–
–	530 nM	–	–	NCC1CC(n2cc(-c3cccc(C(N)=O)c3)c3c(N)ncnc32)C1 (stereo not shown) [Compound 60]	–
186.5 to 189 °C	–	–	–	N#Cc1cccc(-c2cn(C3CC(CN)C3)c3ncnc(N)c23)c1 (stereo not shown) (as salt: TFA) [Compound 57]	–
82 to 84 °C	–	28000 nM	–	CS(=O)(=O)Nc1cccc(-c2cn(C3CC(CN)C3)c3ncnc(N)c23)c1 (stereo not shown) [Compound 13]	IC50 [2]: 5800 nM; IC50 [5]: 6500 nM
–	39 nM	8000 nM	25000 nM	NCC1CC(n2cc(-c3cnc4ccccc4c3)c3c(N)ncnc32)C1 (stereo not shown) [Compound 69]	–
197 to 200 °C	1100 nM	–	11000 nM	CN(Cc1ccccc1)c1cccc(-c2cn(C3CC(CN)C3)c3ncnc(N)c23)c1 (stereo not shown) [Compound 26]	IC50 [5]: 2700 nM
202.5 to 204.5 °C	–	–	–	NCC1CC(n2cc(-c3cc4ccccc4o3)c3c(N)ncnc32)C1 (stereo not shown) (as salt: TFA) [Compound 37]	–
–	5500 nM	–	21000 nM	NCC1CC(n2cc(C(Cl)=CCOCc3ccccc3)c3c(N)ncnc32)C1 (stereo not shown) [Compound 71]	–
–	–	–	–	NCC1CC(n2cc(-c3cccc(N(CCCCO)Cc4ccccc4)c3)c3c(N)ncnc32)C1 (stereo not shown) [Compound 61]	IC50 [4]: 3900 nM
241 to 242.5 °C	–	–	–	NCC1CC(n2cc(I)c3c(N)ncnc32)C1 (stereo not shown) (as salt: HCl) [Compound 52]	–
–	1100 nM	–	–	N#Cc1ccc(-c2cn(C3CC(CN)C3)c3ncnc(N)c23)cc1N (stereo not shown) [Compound 58]	IC50 [2]: 430 nM; IC50 [5]: 610 nM
–	6500 nM	17000 nM	–	CC(=O)Nc1cccc(-c2cn(C3CC(CN)C3)c3ncnc(N)c23)c1 (stereo not shown) [Compound 21]	–
172 to 174.5 °C	–	–	–	C[Si](C)(COc1cccc(-c2cn(C3CC(CN)C3)c3ncnc(N)c23)c1)c1ccccc1 (stereo not shown) (as salt: TFA) [Compound 8]	–
72.5 to 74 °C	–	27000 nM	20000 nM	NCC1CC(n2cc(-c3ccc4c(c3)n(Cc3ccccc3)c(=O)n4Cc3ccccc3)c3c(N)ncnc32)C1 (stereo not shown) [Compound 33]	IC50 [4]: 370 nM; IC50 [2]: 6850 nM
